How the values were obtained:
[1] = molecular target: T1, beta-catenin-B-cell lymphoma 9 protein complex (Homo sapiens, UniProt O00512+P35222); test: Inhibition of Flag-tagged beta-Catenin (unknown origin)/Flag-tagged BCL9 (unknown origin) protein-protein interaction assessed as inhibition constant by ELISA assay; assay type: protein-complex assay
T1 sequence (P35222 whole entry): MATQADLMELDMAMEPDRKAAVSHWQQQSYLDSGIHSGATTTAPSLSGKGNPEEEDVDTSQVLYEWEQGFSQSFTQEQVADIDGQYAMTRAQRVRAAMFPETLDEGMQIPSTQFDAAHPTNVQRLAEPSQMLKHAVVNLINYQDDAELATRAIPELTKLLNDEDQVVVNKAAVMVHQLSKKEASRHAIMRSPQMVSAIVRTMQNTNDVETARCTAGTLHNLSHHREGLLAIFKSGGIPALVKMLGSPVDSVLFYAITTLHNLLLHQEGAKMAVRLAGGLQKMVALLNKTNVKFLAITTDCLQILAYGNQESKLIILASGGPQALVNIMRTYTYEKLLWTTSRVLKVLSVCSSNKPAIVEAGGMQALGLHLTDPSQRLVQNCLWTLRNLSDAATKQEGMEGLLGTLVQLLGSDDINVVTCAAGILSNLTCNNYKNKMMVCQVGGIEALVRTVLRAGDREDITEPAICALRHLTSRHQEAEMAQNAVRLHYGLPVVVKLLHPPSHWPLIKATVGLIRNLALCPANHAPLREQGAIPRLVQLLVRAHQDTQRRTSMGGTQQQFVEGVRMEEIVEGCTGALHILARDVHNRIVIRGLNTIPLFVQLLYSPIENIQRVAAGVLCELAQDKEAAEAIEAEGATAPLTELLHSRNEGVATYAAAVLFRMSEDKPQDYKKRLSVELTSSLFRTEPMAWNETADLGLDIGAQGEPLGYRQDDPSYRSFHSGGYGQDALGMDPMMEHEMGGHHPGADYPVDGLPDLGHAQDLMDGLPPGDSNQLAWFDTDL
T1 sequence (O00512 whole entry): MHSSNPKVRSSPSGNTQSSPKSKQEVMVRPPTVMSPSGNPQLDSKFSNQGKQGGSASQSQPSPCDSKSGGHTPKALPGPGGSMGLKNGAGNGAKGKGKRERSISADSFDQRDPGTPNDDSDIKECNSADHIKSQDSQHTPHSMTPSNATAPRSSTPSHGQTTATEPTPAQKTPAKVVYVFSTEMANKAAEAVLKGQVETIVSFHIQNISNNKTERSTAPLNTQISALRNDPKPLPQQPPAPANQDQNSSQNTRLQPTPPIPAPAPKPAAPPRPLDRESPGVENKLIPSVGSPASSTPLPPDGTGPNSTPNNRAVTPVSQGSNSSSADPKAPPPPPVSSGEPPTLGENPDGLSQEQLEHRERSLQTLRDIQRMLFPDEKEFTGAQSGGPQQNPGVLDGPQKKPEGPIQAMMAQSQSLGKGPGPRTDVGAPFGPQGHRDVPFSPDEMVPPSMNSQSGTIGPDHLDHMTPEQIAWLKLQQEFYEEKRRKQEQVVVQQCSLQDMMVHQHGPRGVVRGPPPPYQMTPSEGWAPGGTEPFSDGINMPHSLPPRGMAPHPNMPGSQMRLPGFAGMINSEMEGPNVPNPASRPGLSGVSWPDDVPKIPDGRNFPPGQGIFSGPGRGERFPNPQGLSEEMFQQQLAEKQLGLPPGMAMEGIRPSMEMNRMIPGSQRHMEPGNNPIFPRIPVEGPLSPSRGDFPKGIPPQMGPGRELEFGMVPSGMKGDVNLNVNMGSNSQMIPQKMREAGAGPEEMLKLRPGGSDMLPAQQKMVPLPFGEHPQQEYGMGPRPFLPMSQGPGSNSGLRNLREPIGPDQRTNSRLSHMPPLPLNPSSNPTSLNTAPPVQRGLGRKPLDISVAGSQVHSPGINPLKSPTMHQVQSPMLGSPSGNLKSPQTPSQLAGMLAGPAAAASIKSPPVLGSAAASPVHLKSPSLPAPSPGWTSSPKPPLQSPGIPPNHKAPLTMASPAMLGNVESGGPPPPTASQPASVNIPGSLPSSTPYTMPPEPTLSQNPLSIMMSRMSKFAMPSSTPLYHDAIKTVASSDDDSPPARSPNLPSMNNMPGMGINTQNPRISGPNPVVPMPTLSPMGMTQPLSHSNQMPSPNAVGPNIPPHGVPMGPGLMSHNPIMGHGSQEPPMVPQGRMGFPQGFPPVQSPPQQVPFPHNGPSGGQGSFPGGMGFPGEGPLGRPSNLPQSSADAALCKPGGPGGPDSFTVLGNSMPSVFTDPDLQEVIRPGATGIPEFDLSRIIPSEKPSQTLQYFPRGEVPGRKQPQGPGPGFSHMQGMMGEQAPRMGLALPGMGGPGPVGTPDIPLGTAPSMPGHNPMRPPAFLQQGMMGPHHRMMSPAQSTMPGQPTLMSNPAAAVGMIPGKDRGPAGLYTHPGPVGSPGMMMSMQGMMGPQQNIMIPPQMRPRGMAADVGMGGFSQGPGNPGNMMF

[2] = molecular target: T2, Catenin beta-1/Cadherin-1 (Homo sapiens, UniProt P35222); test: Inhibition of His6-tagged human beta-Catenin (138 to 686 residues)/C-terminal fluorescein-labeled human E-cadherin (819 to 873 residues) protein-protein interaction assessed as inhibition constant by AlphaScreen competitive assay
T2 sequence (P35222 whole entry): T1 sequence (P35222 whole entry)
T2 sequence (P12830 whole entry): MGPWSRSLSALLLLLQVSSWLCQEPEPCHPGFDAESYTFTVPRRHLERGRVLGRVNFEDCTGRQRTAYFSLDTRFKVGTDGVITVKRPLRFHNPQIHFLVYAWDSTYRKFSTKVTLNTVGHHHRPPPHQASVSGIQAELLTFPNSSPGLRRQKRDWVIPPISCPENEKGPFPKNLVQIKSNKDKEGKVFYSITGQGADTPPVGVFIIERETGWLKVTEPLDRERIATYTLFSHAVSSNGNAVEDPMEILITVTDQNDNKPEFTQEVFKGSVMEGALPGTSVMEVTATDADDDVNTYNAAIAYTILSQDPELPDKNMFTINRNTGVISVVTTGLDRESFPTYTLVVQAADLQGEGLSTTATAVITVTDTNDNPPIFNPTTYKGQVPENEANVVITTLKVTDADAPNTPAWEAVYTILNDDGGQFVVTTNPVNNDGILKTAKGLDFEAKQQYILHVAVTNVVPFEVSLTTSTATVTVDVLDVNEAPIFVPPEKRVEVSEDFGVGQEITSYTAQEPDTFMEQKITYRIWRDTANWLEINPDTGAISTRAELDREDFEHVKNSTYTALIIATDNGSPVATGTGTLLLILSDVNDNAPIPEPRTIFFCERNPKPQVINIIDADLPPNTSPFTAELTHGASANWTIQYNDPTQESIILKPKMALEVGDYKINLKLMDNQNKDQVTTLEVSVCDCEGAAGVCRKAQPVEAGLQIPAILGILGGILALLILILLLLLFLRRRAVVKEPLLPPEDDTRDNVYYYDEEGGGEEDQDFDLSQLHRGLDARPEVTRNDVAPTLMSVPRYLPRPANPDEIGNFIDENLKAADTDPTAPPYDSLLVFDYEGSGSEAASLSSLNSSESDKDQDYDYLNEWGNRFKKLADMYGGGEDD

[3] = tested on: HCT-116; test: Cytotoxicity against human HCT-116 cells incubated for 48 hrs by MTT assay; assay type: functional
[4] = tested on: SW480; test: Cytotoxicity against human SW480 cells incubated for 48 hrs by MTT assay; assay type: functional
[5] = tested on: NCM460; test: Cytotoxicity against human NCM460 cells incubated for 48 hrs by MTT assay; assay type: toxicity, cell-based; details: ncm460, 48 h
[6] = molecular target: T3, TCF4-CTNNB1 complex (Homo sapiens, UniProt P35222+Q9NQB0); test: Inhibition of human beta-Catenin/GST-tagged TCF4 (unknown origin) protein-protein interaction incubated for 2 hrs by ELISA assay; assay type: protein-complex assay
T3 sequence (P35222 whole entry): T1 sequence (P35222 whole entry)
T3 sequence (P15884 whole entry): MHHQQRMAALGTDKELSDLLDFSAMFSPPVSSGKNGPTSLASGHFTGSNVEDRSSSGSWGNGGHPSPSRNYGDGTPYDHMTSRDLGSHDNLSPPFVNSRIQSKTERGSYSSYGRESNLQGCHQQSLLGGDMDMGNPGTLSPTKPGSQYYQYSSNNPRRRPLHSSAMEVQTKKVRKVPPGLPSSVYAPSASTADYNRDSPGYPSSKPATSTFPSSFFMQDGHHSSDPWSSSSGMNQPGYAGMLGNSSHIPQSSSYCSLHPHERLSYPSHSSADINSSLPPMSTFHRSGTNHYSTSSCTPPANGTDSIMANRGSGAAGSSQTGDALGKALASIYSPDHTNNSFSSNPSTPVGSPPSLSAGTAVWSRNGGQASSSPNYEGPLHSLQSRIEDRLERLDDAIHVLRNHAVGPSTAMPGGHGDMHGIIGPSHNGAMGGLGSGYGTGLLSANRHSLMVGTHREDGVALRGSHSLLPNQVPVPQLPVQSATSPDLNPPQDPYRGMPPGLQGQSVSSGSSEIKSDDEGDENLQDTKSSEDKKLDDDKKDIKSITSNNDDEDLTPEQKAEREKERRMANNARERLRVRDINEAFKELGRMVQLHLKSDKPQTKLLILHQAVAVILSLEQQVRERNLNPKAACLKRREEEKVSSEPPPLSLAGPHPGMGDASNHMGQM

[7] = molecular target: T3, TCF4-CTNNB1 complex; test: Inhibition of beta-Catenin/TCF4 (unknown origin) protein-protein interaction; assay type: protein-complex assay
[8] = molecular target: T3, TCF4-CTNNB1 complex; test: Inhibition of beta-Catenin/GST-tagged TCF4 protein-protein interaction in human HCT-116 cells incubated for 24 hrs by immunoprecipitation assay; assay type: cell-based
[9] = Inhibition of Wnt1 signalling in human SW480 cells expressing ST-Luc incubated for 24 hrs by luciferase reporter assay; assay type: cell-based; details: SW480, 24 h
[10] = molecular target: T4, TCF4-CTNNB1 complex (Homo sapiens, UniProt P15884+P35222); test: Inhibition of beta-Catenin (301 to 670 residues)/TCF4 protein-protein interaction in human HCT-116 cells incubated for 20 hrs by TOPFLASH luciferase reporter assay; assay type: cell-based
T4 sequence (P35222 whole entry): T1 sequence (P35222 whole entry)
T4 sequence (P15884 whole entry): T3 sequence (P15884 whole entry)

[11] = tested on: SW480; test: Antiproliferative activity against human SW480 cells assessed as inhibition of cell growth by MTS assay; assay type: functional, cell-based
[12] = Inhibition of human beta-Catenin (138 to 686 residues)/C-terminal fluorescein-labeled human APC (1477 to 1519 residues) protein-protein interaction assessed as inhibition constant incubated for 30 mins by fluorescence polarization assay
[13] = tested on: HCT-116; test: Antitumor activity against human HCT-116 cells xenografted with mouse assessed as reduction in tumor size at 100 mg/kg,ip administrated 3 times per week for 11 days; assay type: functional; parameters: scale not given: the % may be the effect or the level left; details: time 11 day
[14] = tested on: HCT-116; test: Antitumor activity against human HCT-116 cells xenografted with mouse assessed as reduction in tumor size at 20 mg/kg,ip administrated 3 times per week for 11 days; assay type: functional; parameters: scale not given: the % may be the effect or the level left; details: time 11 day
[15] = Inhibition of beta-Catenin S33Y mutant/TCF4 protein-protein interaction in human SNU-398 cells incubated for 24 hrs by TOPFLASH reporter assay; assay type: cell-based
[16] = molecular target: T4, TCF4-CTNNB1 complex; test: Inhibition of wild type beta-Catenin/TCF4 protein-protein interaction in human Hep3B cells incubated for 24 hrs by TOPFLASH reporter assay; assay type: cell-based
[17] = tested on: HCT-116; test: Antiproliferative activity against human HCT-116 cells assessed as inhibition of cell growth by MTS assay; assay type: functional, cell-based
[18] = tested on: HT-29; test: Antiproliferative activity against human HT-29 cells assessed as inhibition of cell growth by MTS assay; assay type: functional, cell-based

CC(C)c1cc2c(c(O)c1O)[C@@]1(C(=O)O)CCCC(C)(C)C1CC2 (some centres not stated)
Ki [1]: 3.3 µM

O=C(Nc1ccc(O[C@H]2CCNC2)c(-c2ccc(F)cc2)c1)c1ccc(O[C@H]2CCNC2)c(-c2ccc(F)c(F)c2)c1
Ki [2]: 260 µM

C=C1C(=O)C23[C@H](O)C[C@@H]4C(C)(C)[C@@H](OC(C)=O)CC[C@@]4(C)[C@@H]2[C@@H]2O[C@@H]2C1[C@H]3O (some centres not stated)
Activity [3]: >95% | Activity [4]: >95% | Activity [5]: 10%

COC(=O)c1c(C)cc2c(c1O)[C@]1(O)C(=O)c3cc4c(c(O)c3C(=O)[C@]1(OC)[C@H](O)C2)C(=O)C=C(N[C@@H]1O[C@H](C)[C@@H](OC)[C@H](O)[C@@H]1OC)C4=O
IC50 [6]: 0.64 µM

C[C@H]1[C@H]2N(C(=O)CN(C)N2C(=O)NCc2ccccc2)[C@@H](Cc2ccc(OP(=O)(O)O)cc2)C(=O)N1Cc1cccc2cccnc12
IC50 [7]: 0.15 µM

COc1c(CC(C)OC(=O)Oc2ccc(O)cc2)c2c3c(CC(C)OC(=O)c4ccccc4)c(OC)c(=O)c4c(O)cc(OC)c(c5c(OC)cc(O)c(c1=O)c52)c43 (configuration not stated)
IC50 [8]: 10 µM

C=C1C(=O)[C@@]23[C@H](O)C[C@@H]4C(C)(C)CC[C@H](O)[C@@]4(COC(C)=O)[C@@H]2CC[C@H]1[C@H]3O
IC50 [9]: 0.6 µM

COC(=O)c1cccc(NS(=O)(=O)c2ccc(C)cc2)c1
IC50 [10]: 0.583 µM

COC(=O)[C@H](CCC(=O)O)NC(=O)[C@H](CC(=O)O)NC(=O)[C@H](Cc1ccc2ccccc2c1)NC(=O)Cc1cc2cc(Cl)ccc2[nH]1
IC50 [11]: 232 µM | Ki [12]: 86.6 µM

COc1c(CC(C)OC(=O)c2c(C)cc(O)cc2C)c2c3c(CC(C)OC(=O)c4c(C)cc(O)cc4O)c(OC)c(=O)c4c(O)cc(OC)c(c5c(OC)cc(O)c(c1=O)c52)c43 (configuration not stated)
IC50 [8]: 10 µM | IC50 [6]: 4.1 µM

COC(=O)c1cccc(NS(=O)(=O)c2ccc(OC)cc2)c1
IC50 [10]: 0.53 µM

O=c1ccc2cc(O)c(O)cc2o1 [ESCULETIN]
Activity [13]: 64% | Activity [14]: 44%

O=C(Nc1cnn(Cc2ccc(F)cc2)c1)C1CC1c1ccccc1 (configuration not stated)
IC50 [15]: 32 µM | IC50 [16]: 25 µM

CCOC(=O)CC[C@H](NC(=O)[C@H](CC(=O)OCC)NC(=O)[C@H](Cc1ccc2ccccc2c1)NC(=O)Cc1cc2cc(Cl)ccc2[nH]1)C(=O)OC
IC50 [17]: 10 µM | IC50 [18]: 10 µM | IC50 [11]: 28.7 µM

Source: ChEMBL document CHEMBL5331063, “Recent advances of β-catenin small molecule inhibitors for cancer therapy: Current development and future perspectives” (Eur J Med Chem, 2022)
